Patent publication US8476235B2 (Apotex Technologies Inc., priority 2006, dated 2013)
Values after ≈ are worked out from the molar mass of the structure shown. Read-outs that look alike come from different tables or passages of the source. Values belong to the compound of their own block, whether it stands above or below them.

Columns and labels:
pH of solution = type: physicochemical; details: in solution
water solubility = type: physicochemical; details: in water, organic solvent free
[1] = speciation calculation using experimentally determined pKas (FIG. 8); type: physicochemical; details: pH 2.7, concentration 0.5M
Source text: FIG. 8 illustrates the speciation calculation of the dipeptide H-D-iGlu-D-Trp-OH and its salt using experimentally determined pKas of the acid and amine groups. LH2 is the diacid form of the peptide H-D-iGlu-D-Trp-OH, LH is the mono carboxylic acid salt of H-D-iGlu-D-Trp-OH. An example of such is the mono ammonium salt. L refers to the diacid salt form and one such example is the disodium salt of the peptide H-D-iGlu-D-Trp-OH.
The pKas of the acid and amine groups of H-D-iGlu-D-Trp-OH are experimentally determined. In FIG. 8, LH2 is thymodepressin, LH is the monocarboxylic acid salt, L is the dicarboxylic acid salt, and LH3 is the acid addition salt of thymodepressin. The X axis provides the pH of the solution. The Y axis provides the % formation relative to L (the default terminology of the software) and reports the molar fraction of the species present at a particular pH. The concentration of 0.5M is used to reflect the equivalency of 1 gm of thymodepressin in 6 ml water during isolation purposes. […] For this reason, thymodepressin precipitates at pH 2.7 and can be filtered. The mother liquor can be concentrated to obtain a second crop of thymodepressin. The plot confirms the theoretical prediction that the diacid form of H-D-iGlu-D-Trp-OH predominates at pH of about 2.5 to about 3.0, which is the pH for the isolation of the diacid from water as a precipitate. […]

[2] = solid form, cited from earlier work
[3] = HPLC method B
Method: In method B, the samples are analyzed with a normal reverse phase column, there is virtually no difference in the retention times of the samples.

pH of a solution (pH of solution): about 3 | water solubility (water solubility; listed as H-D-iGlu-D-Trp-OH): < 23 mg per mL | water solubility (water solubility; listed as crystalline thymodepressin): about 20 mg per mL | solubility (water solubility; water): ~23 mg/mL (≈ 69 mM) | molar fraction present as dicarboxylic acid form (LH2) [1]: about 75%
Compound: N[C@H](CCC(=O)N[C@H](Cc1c[nH]c2ccccc12)C(=O)O)C(=O)O [thymodepressin, D-isoglutamyl-D-tryptophan]

Compound: D-isoglutamyl-D-tryptophan disodium salt
hygroscopicity (in words) ([2]; listed as D-isoglutamyl-D-tryptophan disodium salt): hygroscopic | hygroscopicity (in words) ([2]; disodium salt): extremely hygroscopic

purity at 254 nm after 2 years of storage [3]: 99.8%
Compound: D-isoglutamyl-D-tryptophan, mono ammonium salt (1:1)
